According to paper PMC12022103 (Scientific Reports, 2025):
≈ marks a conversion by molar mass, not a printed value. Non-standard residues stand in square brackets, D forms with d. Residues, ends and D or L forms follow the SMILES beside them. No end group written: not given here. AEEA = NCCOCCOCC(=O)O

Legend:
[1] = tested on: K. pneumoniae ATCC 13883; assay: Minimum inhibitory concentration (MIC), broth dilution; type: cell-based; conditions: K. pneumoniae ATCC 13883; MH II broth, 5 × 10^5 CFU/mL, 18–24 h, 37 °C, OD600; triplicate, highest number reported; detection limit <0.5 and >128 µM
Method: (§1) The panel of bacterial reference strains used in this work for assessment of synthetic peptide activity originated from the American Type Culture Collection (ATCC) and was obtained from the Diagnostic section at the Department of Microbiology, Oslo University Hospital. The strains used were as follows: E. coli ATCC 25922, K. pneumoniae ATCC 13883, A. baumannii ATCC 17978, S. aureus ATCC 29213, and E. faecalis ATCC 29212.
(§2) Bacterial strains were plated on cation-adjusted Mueller-Hinton (MH II) agar plates and incubated at 37 °C overnight. The day after single colonies were picked and resuspended in sterile-filtered saline (0.9%). The OD of each bacterial suspension was adjusted to McFarland standard 0.5 using a spectrophotometer (UV-1800, Shimadzu), and the suspension further diluted 1:100 in MH II broth, corresponding to 10^6 colony forming units (CFU) per mL. The inoculum suspension was used for MIC, MBC, time-kill and protease stability assessments as described below. To ensure correct inoculum sizes, 10 µL of the bacterial suspensions were diluted 2000-fold in sterile-filtered saline (0.9%) and 100 µL plated onto MH II agar plates. After overnight incubation at 37 °C, colonies were counted. If found to be outside the acceptable number (20–80 colonies per plate corresponding to ∼10^6 CFU/mL), results from further analyses were discarded.
(§3) The peptides were serially diluted (two-fold) directly in 96-well plates (Greiner, MICROPLATE, 96 WELL, PP, U-BOTTOM, NATURAL, 650261) containing MH II broth, corresponding to concentrations in the range 256–0.5 µM. An equal volume of bacterial suspension was added to each well, resulting in a final inoculum of 5 × 10^5 CFU/mL and final peptide concentrations of 128–0.25 µM. The 96-well plates were incubated for 18–24 h at 37 °C, after which the OD of each well was measured at 600 nm in a plate reader (Victor Nivo, Perkin-Elmer). The minimum inhibitory concentration (MIC) was estimated as the lowest concentration of peptide that produced OD600 measurements similar to the control wells containing no bacteria. The experiments were performed in triplicate. Two-fold variations in MIC values were often observed between replicates.

[2] = tested on: S. aureus ATCC 29213; assay: as above; type: cell-based; conditions: S. aureus ATCC 29213; MH II broth, 5 × 10^5 CFU/mL, 18–24 h, 37 °C, OD600; triplicate, highest number reported; detection limit <0.5 and >128 µM
Method: as §1, §2, §3

[3] = tested on: A. baumannii ATCC 17978; assay: as above; type: cell-based; conditions: MH II broth, 5 × 10^5 CFU/mL, 18–24 h, 37 °C, OD600, triplicate, highest number reported, detection limit <0.5 and >128 µM
Method: as §1, §2, §3

[4] = tested on: E. faecalis ATCC 29212; assay: as above; type: cell-based; conditions: E. faecalis ATCC 29212; MH II broth, 5 × 10^5 CFU/mL, 18–24 h, 37 °C, OD600; triplicate, highest number reported; detection limit <0.5 and >128 µM
Method: as §1, §2, §3

[5] = tested on: P. aeruginosa; assay: Minimum bactericidal concentration (MBC); type: cell-based; conditions: 5 µL from MIC wells plated on MH II agar, 37 °C overnight, no visible colonies; triplicate, highest number reported
[6] = tested on: E. coli ATCC 25922; assay: Minimum bactericidal concentration (MBC); type: cell-based, Escherichia coli; conditions: 5 µL from MIC wells plated on MH II agar, 37 °C overnight, no visible colonies, triplicate, highest number reported, detection limit <0.5 and >128 µM
Method: as §1, §2
(§4) In order to assess the minimum bactericidal concentration (MBC) of peptides, 5 µL from each well of the 96-well plate used for MIC analysis was plated onto MH II agar and incubated at 37 °C overnight. […] The experiments were performed in triplicate. Two-fold variations in MIC values were often observed between replicates.

[7] = tested on: E. coli ATCC 25922; assay: Minimum inhibitory concentration (MIC), broth dilution; type: cell-based, Escherichia coli; conditions: E. coli ATCC 25922; two-fold dilution in MH II broth, 5 × 10^5 CFU/mL, 18–24 h, 37 °C, OD600; triplicate, highest number reported; detection limit <0.5 and >128 µM
Method: as §1, §2, §3

[8] = tested on: K. pneumoniae ATCC 13883; assay: Minimum bactericidal concentration (MBC); type: cell-based; conditions: 5 µL from MIC wells plated on MH II agar, 37 °C overnight, no visible colonies, triplicate, highest number reported
Method: as §1, §2, §4

[9] = tested on: S. aureus ATCC 29213; assay: Minimum bactericidal concentration (MBC); type: cell-based; conditions: 5 µL from MIC wells plated on MH II agar, 37 °C overnight, no visible colonies, triplicate, highest number reported
Method: as §1, §2, §4

[10] = tested on: A. baumannii ATCC 17978; assay: Minimum bactericidal concentration (MBC); type: cell-based; conditions: 5 µL from MIC wells plated on MH II agar, 37 °C overnight, no visible colonies, triplicate, highest number reported
Method: as §1, §2, §4

[11] = tested on: E. faecalis ATCC 29212; assay: Minimum bactericidal concentration (MBC); type: cell-based; conditions: 5 µL from MIC wells plated on MH II agar, 37 °C overnight, no visible colonies, triplicate, highest number reported
Method: as §1, §2, §4

[12] = tested on: P. aeruginosa; assay: Minimum inhibitory concentration (MIC), broth dilution; type: cell-based; conditions: MH II broth, 5 × 10^5 CFU/mL, 18–24 h, 37 °C, OD600; triplicate, highest number reported; detection limit <0.5 and >128 µM

Compound | MIC, K. pneumoniae [1] | MIC, S. aureus [2] | MIC, A. baumannii [3] | MIC, E. faecalis [4] | MBC, P. aeruginosa [5] | MBC, E. coli [6] | MIC, E. coli [7] | MBC, K. pneumoniae [8] | MBC, S. aureus [9] | MBC, A. baumannii [10] | MBC, E. faecalis [11] | MIC, P. aeruginosa [12]
VKKKKKAVLQLILKFLRRRR-NH2 [3b-N10] | 16 µM | 8 µM | 8 µM | 4 µM | 4 µM | 16 µM | 16 µM | 16 µM | 8 µM | 8 µM | 4 µM | 4 µM
CC[C@H](C)[C@H](NC(=O)[C@H](CC(C)C)NC(=O)[C@H](CCC(N)=O)NC(=O)[C@H](CC(C)C)NC(=O)[C@@H](NC(=O)[C@H](C)NC(=O)[C@H](CCCCN)NC(=O)[C@H](CCCCN)NC(=O)[C@H](CCCCN)NC(=O)[C@H](CCCCN)NC(=O)[C@H](CCCCN)NC(=O)[C@@H](N)C(C)C)C(C)C)C(=O)NCCOCCOCC(=O)N[C@@H](CC(C)C)C(=O)N[C@@H](CCCCN)C(=O)N[C@@H](Cc1ccccc1)C(=O)N[C@@H](CC(C)C)C(N)=O [3e-N10] (H-VKKKKKAVLQLI[AEEA]LKFL-NH2) | 128 µM (≈ 261 µg/mL) | > 128 µM | 32 µM (≈ 65.3 µg/mL) | > 128 µM | > 128 µM | 128 µM (≈ 261 µg/mL) | 128 µM (≈ 261 µg/mL) | 128 µM (≈ 261 µg/mL) | > 128 µM | 64 µM (≈ 131 µg/mL) | > 128 µM | 32 µM (≈ 65.3 µg/mL)
CC[C@H](C)[C@H](NC(=O)[C@H](CC(C)C)NC(=O)[C@H](CCC(N)=O)NC(=O)[C@H](CC(C)C)NC(=O)[C@@H](NC(=O)[C@H](C)NC(=O)[C@H](CCCCN)NC(=O)[C@H](CCCCN)NC(=O)[C@H](CCCCN)NC(=O)COCCOCCNC(=O)[C@H](CCCCN)NC(=O)[C@H](CCCCN)NC(=O)[C@@H](N)C(C)C)C(C)C)C(=O)N[C@@H](CC(C)C)C(=O)N[C@@H](CCCCN)C(=O)N[C@@H](Cc1ccccc1)C(=O)N[C@@H](CC(C)C)C(N)=O [3d-N10] (H-VKK[AEEA]KKKAVLQLILKFL-NH2) | 32 µM (≈ 65.3 µg/mL) | 32 µM (≈ 65.3 µg/mL) | 16 µM (≈ 32.7 µg/mL) | 32 µM (≈ 65.3 µg/mL) | 64 µM (≈ 131 µg/mL) | 16 µM (≈ 32.7 µg/mL) | 16 µM (≈ 32.7 µg/mL) | 32 µM (≈ 65.3 µg/mL) | 32 µM (≈ 65.3 µg/mL) | 16 µM (≈ 32.7 µg/mL) | 32 µM (≈ 65.3 µg/mL) | 64 µM (≈ 131 µg/mL)
KKKKFVLQLILKLL-NH2 [2f-N12] | > 128 µM | > 128 µM | > 128 µM | > 128 µM | > 128 µM | > 128 µM | > 128 µM | > 128 µM | > 128 µM | > 128 µM | > 128 µM | > 128 µM
CC[C@H](C)[C@H](NC(=O)[C@H](CC(C)C)NC(=O)[C@H](CCC(N)=O)NC(=O)[C@H](CC(C)C)NC(=O)[C@@H](NC(=O)[C@H](C)NC(=O)COCCOCCNC(=O)[C@H](CCCCN)NC(=O)[C@H](CCCCN)NC(=O)[C@H](CCCCN)NC(=O)[C@H](CCCCN)NC(=O)[C@H](CCCCN)NC(=O)[C@@H](N)C(C)C)C(C)C)C(=O)N[C@@H](CC(C)C)C(=O)N[C@@H](CCCCN)C(=O)N[C@@H](Cc1ccccc1)C(=O)N[C@@H](CC(C)C)C(N)=O [3c-N10] (H-VKKKKK[AEEA]AVLQLILKFL-NH2) | 16 µM (≈ 32.7 µg/mL) | 32 µM (≈ 65.3 µg/mL) | 16 µM (≈ 32.7 µg/mL) | 16 µM (≈ 32.7 µg/mL) | 32 µM (≈ 65.3 µg/mL) | 16 µM (≈ 32.7 µg/mL) | 16 µM (≈ 32.7 µg/mL) | 16 µM (≈ 32.7 µg/mL) | 32 µM (≈ 65.3 µg/mL) | 16 µM (≈ 32.7 µg/mL) | 16 µM (≈ 32.7 µg/mL) | 64 µM (≈ 131 µg/mL)
